{"source": "patent US20220184222A1", "about": "“BICYCLE TOXIN CONJUGATES AND USES THEREOF” (BicycleTx Limited, priority 2019, published 2022)", "key": {"CTG-2540": {"test_system": "CTG-2540", "assay": "Champions TumorGraft NSCLC PDX efficacy, model CTG-2540", "format": "in vivo, Mus musculus", "description": "(§1) Mice were implanted subcutaneously into the left flank with tumor fragments from one of the various models. After tumors grew to an average of 150-300 mm^3, mice were treated by IV administration Q7Dx4 (n=2) with vehicle or 3 mg/kg of BT5528. Effects on tumor growth were evaluated by measuring percent tumor growth inhibition (% TGI), and the number of complete responders (CR), partial responders (PR), and tumor-free survivors (TFS). Tolerability was assessed by body weight loss, lethality, and clinical signs of adverse treatment-related side effects. Tumor volumes and body weights were measured twice a week.\n(§2) Dosing solutions of BT5528 […] were pre-formulated. These dosing solutions were stored at −80° C. in the dark. On each day of dosing, a frozen aliquot of each test agent was thawed, stored at 2-8° C. and used for dosing.\n(§3) The animals used in this study are described below: • Species: Mus musculus • Strain: Athymic Nude-Foxn1^nu (immune-compromised) • Source: Envigo (Indianapolis, Ind., USA) • Number of animals per group: 2 • Age and sex: At least 6-8 weeks of age at start of dosing, female • Weight: At least 18 grams at start of dosing • Acclimation period: 3 days\n(§4) Stock mice were implanted with tumor cells from Champions TumorGraft® models CTG-0160, CTG-0170, CTG-0178, CTG-0192, CTG-0363, CTG-0808, CTG-0838, CTG-0848, CTG-1212, CTG-1502, CTG-1535, CTG-2011, CTG-2393, CTG-2539 or CTG-2540. After the tumors reached 1000-1500 mm^3, they were harvested and the tumor fragments (approximately 5×5×5 mm^3) were implanted SC in the left flank of the female study mice. Each animal was implanted with a specific passage lot and documented. Tumor growth was monitored twice a week using digital calipers and the tumor volume (TV) was calculated using the formula (0.52×[length×width^2]). When the TV reached an average volume of 150-300 mm^3, animals were matched by tumor size and assigned into Vehicle Control and treatment groups (n=2/group) and dosing was initiated on Day 0. After the initiation of dosing on Day 0, animals were weighed twice per week using a digital scale and TV was measured twice per week and also on the final day of study. The study was completed when the mean tumor volume of Vehicle Control reached 1500 mm^3 or up to Day 60, whichever occurred first.\n(§5) Beginning on Day 0, animals were observed daily and weighed twice weekly using a digital scale; data including individual and mean gram weights, mean percent weight change versus Day 0 (% vD0) were recorded for each group and % vD0 plotted at study completion. […] Treatment resulting in a mean % vD0>20% and/or >10% mortality was considered above the maximum tolerated dose. Maximum mean % vD0 (weight nadir) for each treatment group was reported at study completion.\n(§6) Inhibition of tumor growth was determined by calculating the percent TGI (100%×[1−(final MTV−initial MTV of a treated group)/(final MTV−initial MTV of the control group)]). Treatment started on Day 0.\n(§7) Additional endpoints used to evaluate efficacy were: the number of complete responders (CR), partial responders (PR), and tumor-free survivors (TFS). PRs were considered exclusive of CRs, as were TFS.\n(§8) Statistical analyses of anti-tumor efficacy were performed using one-way ANOVA followed by Dunnett's multiple comparisons test (GraphPad Prism version 8.2.0). Significant p-values=<0.05.\nAnimals were dosed according to the schedule on Table 7-1. The study was terminated on Day 28."}, "CTG-0170": {"test_system": "CTG-0170", "assay": "Champions TumorGraft NSCLC PDX efficacy, model CTG-0170", "format": "in vivo, Mus musculus", "description": "as §1, §2, §3, §4, §5, §6, §7, §8\nAnimals were dosed according to the schedule on Table 7-1. The Vehicle Control group reached endpoint of average tumor volume >1500 mm^3 on Day 14 and was removed from the study. The study was terminated on Day 28. […] Therefore, the tumor volumes on Day 11 were used for analysis of anti-tumor activity in order to include all animals."}, "[1]": {"conditions": "CTG-2540, 3 mg/kg IV Q7Dx4, Day 0-28"}, "[2]": {"conditions": "CTG-0170, 3 mg/kg IV Q7Dx4, Day 0-28"}}, "note": "Starred links: 1 amine or outer side, 2 acyl side, 3 side chain; linkers in the order of their positions; H or OH if unused. Non-standard residues stand in square brackets, D forms with d. Residues, ends and D or L forms follow the SMILES beside them. *: point of attachment. Dolaproine = CO[C@@H]([C@@H]1CCCN1)[C@@H](C)C(=O)O; Dil = CC[C@H](C)[C@H](NC)[C@@H](CC(=O)O)OC; PABC = O=C(OCc1ccc(N[*:1])cc1)[*:2]; X1 = O=C(CCCC(=O)*)ON1C(=O)CCC1=O; X2 = C[C@@H](N*)[C@@H](O)c1ccccc1; Cit = NC(=O)NCCC[C@H](N)C(=O)O; NMeV = CN[C@H](C(=O)O)C(C)C"}
{"smiles": "CC[C@H](C)[C@@H]([C@@H](CC(=O)N1CCC[C@H]1[C@H](OC)[C@@H](C)C(=O)N[C@H](C)[C@@H](O)c1ccccc1)OC)N(C)C(=O)[C@@H](NC(=O)[C@H](C(C)C)N(C)C(=O)OCc1ccc(NC(=O)[C@H](CCCNC(N)=O)NC(=O)[C@@H](NC(=O)CCCC(=O)ON2C(=O)CCC2=O)C(C)C)cc1)C(C)C", "note": "[BT5528] (X1-V[Cit][PABC][NMeV]V[Dil][Dolaproine]-X2)", "values": [{"measurement": "mean body weight loss", "setting": "CTG-2540; 3 mg/kg IV Q7Dx4", "result": "no mean body weight loss"}, {"measurement": "MTV (mean tumor volume)", "setting": "CTG-2540; 3 mg/kg IV Q7Dx4, Day 28", "result": "692±156", "unit": "mm^3"}, {"measurement": "TGI", "setting": "CTG-2540; 3 mg/kg IV Q7Dx4, Day 28", "result": 75, "unit": "%"}, {"measurement": "# CR (complete responders)", "setting": "CTG-2540; [1]", "result": "0/0/0"}, {"measurement": "# PR (partial responders)", "setting": "CTG-2540; [1]", "result": "0/0/0"}, {"measurement": "# TFS (tumor-free survivors)", "setting": "CTG-2540; [1]", "result": "0/0/0"}, {"measurement": "% TGI", "setting": "CTG-2540; CTG-2540, 3 mg/kg IV Q7Dx4, Day 28", "result": 75, "unit": "%"}, {"measurement": "Day 28 Tumor Volume Mean TV ± SEM", "setting": "CTG-2540; CTG-2540, BT5528 3 mg/kg IV Q7Dx4, Day 28, n=2", "result": "692 ± 156", "unit": "mm^3"}, {"measurement": "body weight and tolerability of the other animal in the group", "setting": "CTG-0170; 3 mg/kg IV Q7Dx4", "result": "no body weight loss and tolerated the BT5528 well"}, {"measurement": "prior body weight loss of the animal found dead on Day 14", "setting": "CTG-0170; 3 mg/kg IV Q7Dx4", "result": 24.8, "unit": "%"}, {"measurement": "MTV (mean tumor volume)", "setting": "CTG-0170; 3 mg/kg IV Q7Dx4, Day 11", "result": "268±15", "unit": "mm^3"}, {"measurement": "TGI", "setting": "CTG-0170; 3 mg/kg IV Q7Dx4, Day 11", "result": 94, "unit": "%"}, {"measurement": "animals found dead", "setting": "CTG-0170; 3 mg/kg IV Q7Dx4, n=2, cause of death unknown", "result": "one animal in the BT5528 group was found dead on Day 14"}, {"measurement": "# CR (complete responders)", "setting": "CTG-0170; [2]", "result": "0/0/0"}, {"measurement": "# PR (partial responders)", "setting": "CTG-0170; [2]", "result": "0/0/0"}, {"measurement": "# TFS (tumor-free survivors)", "setting": "CTG-0170; [2]", "result": "0/0/0"}, {"measurement": "% TGI", "setting": "CTG-0170; CTG-0170, 3 mg/kg IV Q7Dx4, Day 11", "result": 94, "unit": "%"}, {"measurement": "Day 11 Tumor Volume Mean TV ± SEM", "setting": "CTG-0170; CTG-0170, BT5528 3 mg/kg IV Q7Dx4, Day 11, n=2", "result": "268 ± 15", "unit": "mm^3"}]}
